# Measurements from ChEMBL document CHEMBL5260813, “An overview on the recent developments of 1,2,4-triazine derivatives as anticancer compounds” (Eur J Med Chem, 2017).
# Legend:
# [1] = system: BT-474; experiment: Antiproliferative activity against human BT-474 cells assessed as inhibition of cell growth; type: functional, cell-based
# [2] = system: KB; experiment: Antiproliferative activity against human KB cells assessed as inhibition of cell growth under hypoxia condition; type: functional, cell-based
# [3] = system: K562; experiment: Induction of apoptosis in human K562 cells assessed as increase in apoptotic cells under normoxia condition relative to control; type: functional
# [4] = system: K562; experiment: Induction of apoptosis in human K562 cells assessed as increase in apoptotic cells under hypoxia condition relative to control; type: functional
# [5] = target: Epidermal growth factor receptor (Homo sapiens, UniProt P00533); experiment: Inhibition of EGFR (unknown origin)
# [6] = target: Vascular endothelial growth factor receptor 2 (Homo sapiens, UniProt P35968); experiment: Inhibition of VEGFR-2 (unknown origin)
# [7] = Antiproliferative activity against human DiFi cells assessed as inhibition of cell growth by MTS assay
# [8] = system: OVCAR-4; experiment: Antiproliferative activity against human OVCAR-4 cells assessed as cell growth inhibition; type: functional, cell-based
# [9] = system: HL-60; experiment: Antiproliferative activity against human HL-60 cells assessed as inhibition of cell growth under normoxia condition incubated for 72 hrs by MTT assay; type: functional, cell-based; details: HL-60, 72 h
# [10] = system: Bel-7402; experiment: Antiproliferative activity against human Bel-7402 cells assessed as inhibition of cell growth under normoxia condition incubated for 72 hrs by MTT assay; type: functional, cell-based; details: Bel-7402, 72 h
# [11] = system: ECa-109 cell line; experiment: Antiproliferative activity against human Eca-109 cells assessed as inhibition of cell growth under normoxia condition incubated for 72 hrs by MTT assay; type: functional, cell-based; details: ECa-109, 72 h
# [12] = system: PC-3; experiment: Antiproliferative activity against human PC-3 cells assessed as inhibition of cell growth under normoxia condition incubated for 72 hrs by MTT assay; type: functional, cell-based; details: PC-3, 72 h
# [13] = system: MCF7; experiment: Antiproliferative activity against human MCF7 cells assessed as inhibition of cell growth under normoxia condition incubated for 72 hrs by MTT assay; type: functional, cell-based; details: MCF7, 72 h
# [14] = system: HL-60; experiment: Antiproliferative activity against human HL-60 cells assessed as inhibition of cell growth under hypoxia condition incubated for 72 hrs by MTT assay; type: functional, cell-based; details: HL-60, 72 h
# [15] = system: Bel-7402; experiment: Antiproliferative activity against human Bel-7402 cells assessed as inhibition of cell growth under hypoxia condition incubated for 72 hrs by MTT assay; type: functional, cell-based; details: Bel-7402, 72 h
# [16] = system: ECa-109 cell line; experiment: Antiproliferative activity against human Eca-109 cells assessed as inhibition of cell growth under hypoxia condition incubated for 72 hrs by MTT assay; type: functional, cell-based; details: ECa-109, 72 h
# [17] = system: MCF7; experiment: Antiproliferative activity against human MCF7 cells assessed as inhibition of cell growth under hypoxia condition incubated for 72 hrs by MTT assay; type: functional, cell-based; details: MCF7, 72 h
# [18] = system: PC-3; experiment: Antiproliferative activity against human PC-3 cells assessed as inhibition of cell growth under hypoxia condition incubated for 72 hrs by MTT assay; type: functional, cell-based; details: PC-3, 72 h
# [19] = Ratio of IC50 for antiproliferative activity against human HL-60 cells assessed as inhibition of cell growth under normoxia condition to IC50 for antiproliferative activity against human HL-60 cells assessed as inhibition of cell growth under hypoxia condition; type: functional
# [20] = Ratio of IC50 for antiproliferative activity against human Bel-7402 cells assessed as inhibition of cell growth under normoxia condition to IC50 for antiproliferative activity against human Bel-7402 cells assessed as inhibition of cell growth under hypoxia condition; type: functional
# [21] = Ratio of IC50 for antiproliferative activity against human Eca-109 cells assessed as inhibition of cell growth under normoxia condition to IC50 for antiproliferative activity against human Eca-109 cells assessed as inhibition of cell growth under hypoxia condition; type: functional
# [22] = Ratio of IC50 for antiproliferative activity against human MCF7 cells assessed as inhibition of cell growth under normoxia condition to IC50 for antiproliferative activity against human MCF7 cells assessed as inhibition of cell growth under hypoxia condition; type: functional
# [23] = Ratio of IC50 for antiproliferative activity against human PC-3 cells assessed as inhibition of cell growth under normoxia condition to IC50 for antiproliferative activity against human PC-3 cells assessed as inhibition of cell growth under hypoxia condition; type: functional
# [24] = system: HepG2; experiment: Antiproliferative activity against human HepG2 cells assessed as cell growth inhibition; type: functional, cell-based
# [25] = system: MCF7; experiment: Antiproliferative activity against human MCF7 cells assessed as inhibition of cell growth; type: functional, cell-based
# [26] = system: HCT-116; experiment: Antiproliferative activity against human HCT-116 cells assessed as inhibition of cell growth; type: functional, cell-based
# [27] = system: MCF7; experiment: Cytotoxicity against human MCF7 cells assessed as inhibition of cell growth incubated for 72 hrs by MTT assay; type: functional, cell-based; details: MCF7, 72 h
# [28] = system: HL-60; experiment: Antiproliferative activity against human HL-60 cells assessed as inhibition of cell growth incubated for 72 hrs by MTT assay; type: functional, cell-based; details: HL-60, 72 h
# [29] = system: MOLT-4; experiment: Antiproliferative activity against human MOLT-4 cells assessed as inhibition of cell growth incubated for 72 hrs by MTT assay; type: functional, cell-based; details: MOLT-4, 72 h
# Epidermal growth factor receptor, sequence (P00533 whole entry): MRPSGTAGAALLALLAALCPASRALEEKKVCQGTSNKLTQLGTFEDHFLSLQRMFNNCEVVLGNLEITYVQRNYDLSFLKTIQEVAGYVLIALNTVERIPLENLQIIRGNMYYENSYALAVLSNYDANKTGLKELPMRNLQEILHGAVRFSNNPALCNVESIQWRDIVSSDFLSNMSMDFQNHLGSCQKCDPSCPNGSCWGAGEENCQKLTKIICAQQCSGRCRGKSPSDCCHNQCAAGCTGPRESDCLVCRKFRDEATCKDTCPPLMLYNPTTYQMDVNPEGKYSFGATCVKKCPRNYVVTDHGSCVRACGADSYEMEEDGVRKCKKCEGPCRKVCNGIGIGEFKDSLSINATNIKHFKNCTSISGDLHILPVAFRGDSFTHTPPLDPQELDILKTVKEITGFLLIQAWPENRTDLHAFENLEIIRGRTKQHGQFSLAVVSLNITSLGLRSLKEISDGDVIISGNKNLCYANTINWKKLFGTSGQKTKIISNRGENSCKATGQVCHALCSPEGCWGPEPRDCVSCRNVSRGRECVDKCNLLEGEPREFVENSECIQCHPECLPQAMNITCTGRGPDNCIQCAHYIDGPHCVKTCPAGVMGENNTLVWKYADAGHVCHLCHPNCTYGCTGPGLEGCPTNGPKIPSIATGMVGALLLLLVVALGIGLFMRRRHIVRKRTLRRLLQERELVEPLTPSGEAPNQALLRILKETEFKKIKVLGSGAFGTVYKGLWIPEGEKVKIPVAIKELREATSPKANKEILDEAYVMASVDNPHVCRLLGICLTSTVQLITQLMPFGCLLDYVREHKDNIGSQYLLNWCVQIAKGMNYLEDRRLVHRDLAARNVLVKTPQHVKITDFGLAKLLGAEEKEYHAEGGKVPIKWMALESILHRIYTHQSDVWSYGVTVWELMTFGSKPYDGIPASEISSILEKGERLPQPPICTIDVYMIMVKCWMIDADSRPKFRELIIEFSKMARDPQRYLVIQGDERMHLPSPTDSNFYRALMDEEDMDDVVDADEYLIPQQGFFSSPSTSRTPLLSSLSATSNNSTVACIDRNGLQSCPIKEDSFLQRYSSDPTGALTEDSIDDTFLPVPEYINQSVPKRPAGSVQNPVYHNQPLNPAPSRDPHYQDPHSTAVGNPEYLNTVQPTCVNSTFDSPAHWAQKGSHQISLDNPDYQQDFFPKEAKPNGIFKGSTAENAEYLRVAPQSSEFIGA
# Vascular endothelial growth factor receptor 2, sequence (P35968 whole entry): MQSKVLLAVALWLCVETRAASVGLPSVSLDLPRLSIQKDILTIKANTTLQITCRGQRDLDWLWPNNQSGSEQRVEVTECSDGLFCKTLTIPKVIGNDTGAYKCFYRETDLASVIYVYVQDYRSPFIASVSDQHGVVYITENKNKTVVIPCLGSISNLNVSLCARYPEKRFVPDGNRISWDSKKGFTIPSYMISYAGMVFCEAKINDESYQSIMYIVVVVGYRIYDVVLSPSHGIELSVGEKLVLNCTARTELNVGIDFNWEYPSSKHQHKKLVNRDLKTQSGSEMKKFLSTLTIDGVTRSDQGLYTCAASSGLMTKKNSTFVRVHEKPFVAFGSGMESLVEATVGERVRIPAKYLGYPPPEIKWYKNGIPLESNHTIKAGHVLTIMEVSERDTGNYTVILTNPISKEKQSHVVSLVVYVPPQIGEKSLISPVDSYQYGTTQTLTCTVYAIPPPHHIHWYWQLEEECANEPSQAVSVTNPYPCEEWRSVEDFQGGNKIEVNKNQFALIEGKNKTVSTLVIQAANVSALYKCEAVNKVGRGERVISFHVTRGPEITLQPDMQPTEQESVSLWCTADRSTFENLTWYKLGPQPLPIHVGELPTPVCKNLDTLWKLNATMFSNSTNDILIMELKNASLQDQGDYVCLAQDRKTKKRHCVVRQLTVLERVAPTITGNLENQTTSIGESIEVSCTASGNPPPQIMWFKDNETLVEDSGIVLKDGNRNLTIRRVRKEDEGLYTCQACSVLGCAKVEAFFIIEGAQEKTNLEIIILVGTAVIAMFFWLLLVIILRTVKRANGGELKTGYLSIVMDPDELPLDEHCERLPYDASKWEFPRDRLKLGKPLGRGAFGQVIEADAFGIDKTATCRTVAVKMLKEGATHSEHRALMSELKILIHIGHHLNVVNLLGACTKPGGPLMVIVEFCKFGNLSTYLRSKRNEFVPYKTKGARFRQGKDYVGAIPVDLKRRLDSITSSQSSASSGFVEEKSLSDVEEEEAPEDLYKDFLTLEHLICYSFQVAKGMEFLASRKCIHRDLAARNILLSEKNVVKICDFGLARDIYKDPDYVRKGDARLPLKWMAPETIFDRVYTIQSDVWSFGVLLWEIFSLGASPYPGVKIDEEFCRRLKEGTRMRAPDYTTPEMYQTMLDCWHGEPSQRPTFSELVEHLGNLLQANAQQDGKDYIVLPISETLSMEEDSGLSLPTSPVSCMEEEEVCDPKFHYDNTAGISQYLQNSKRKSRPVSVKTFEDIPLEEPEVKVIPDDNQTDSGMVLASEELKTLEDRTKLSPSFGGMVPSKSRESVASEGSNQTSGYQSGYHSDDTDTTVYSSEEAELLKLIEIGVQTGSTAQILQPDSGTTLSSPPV
compound,measurement,setting,value
CCCc1nc2c(=O)n(C)c(=O)nc-2n(C)n1,IC50,[1],900 nM
Cn1nc(Cc2ccccc2)nc2c(=O)n(C)c(=O)nc1-2,IC50,[1],900 nM
CCn1nc(-c2ccccc2)nc2c(=O)n(C)c(=O)nc1-2,IC50,[1],900 nM
Cn1nc(-c2ccccc2)nc2c(=O)n(C)c(=O)nc1-2,IC50,[1],900 nM
COc1ccc(COCNc2n[n+]([O-])c3ccccc3[n+]2[O-])cc1,IC50,[2],3320 nM
same,Activity,[3],14.13%
same,Activity,[4],33.07%
[O-][n+]1nc(NCOCc2ccc(C(F)(F)F)cc2)[n+]([O-])c2ccccc21,IC50,[2],4270 nM
same,Activity,[3],14.95%
same,Activity,[4],54.24%
Cc1ccc2c(Nc3ccc(F)c(Cl)c3)ncnn12,IC50,[5],> 2000 nM
same,IC50,[6],3250 nM
same,IC50,[7],1600 nM
Cc1cc2c(Nc3ccc(C)c(O)c3)ncnn2c1,IC50,[5],405 nM
same,IC50,[6],654 nM
Fc1ccc(Nc2ncnn3cccc23)cc1Cl,IC50,[5],> 10000 nM
same,IC50,[6],118 nM
same,IC50,[7],1600 nM
Cc1ccc(Nc2ncnn3cccc23)cc1O,IC50,[5],1440 nM
same,IC50,[6],510 nM
Cc1ccc(Nc2ncnn3cc(C)c(C)c23)cc1O,IC50,[5],23 nM
same,IC50,[6],200 nM
Cc1cc2c(Nc3ccc(F)c(Cl)c3)ncnn2c1,IC50,[5],> 2000 nM
same,IC50,[6],151 nM
same,IC50,[7],1600 nM
Cc1ccn2ncnc(Nc3ccc(F)c(Cl)c3)c12,IC50,[5],> 10000 nM
same,IC50,[6],100 nM
same,IC50,[7],1600 nM
Cc1ccc(Nc2ncnn3ccc(C)c23)cc1O,IC50,[5],66 nM
same,IC50,[6],346 nM
Cc1c(-c2ccccc2)c(C#N)c2nnc(C(N)=O)c(N)n12,IC50,[8],2770 nM
CCOC(=O)c1nnc2c(C#N)c(-c3ccccc3)c(C)n2c1N,IC50,[8],2770 nM
[O-][n+]1nc(NC2CCCCC2)[n+]([O-])c2ccc(Cl)cc21,IC50,[9],200 nM
same,IC50,[10],200 nM
same,IC50,[11],200 nM
same,IC50,[12],200 nM
same,IC50,[13],200 nM
same,IC50,[14],200 nM
same,IC50,[15],200 nM
same,IC50,[16],200 nM
same,IC50,[17],200 nM
same,IC50,[18],200 nM
same,Ratio IC50,[19],6.4
same,Ratio IC50,[20],1
same,Ratio IC50,[21],2.9
same,Ratio IC50,[22],2.7
same,Ratio IC50,[23],2
O=c1c(/C=C/c2cccs2)nnc(S)n1NC(=S)Nc1ccccc1,IC50,[24],8790 nM
same,IC50,[25],8790 nM
same,IC50,[26],8790 nM
O=c1c(/C=C/c2cccs2)nnc(S)n1/N=C/c1cccs1,IC50,[24],8790 nM
same,IC50,[25],8790 nM
same,IC50,[26],8790 nM
Clc1ccc(CSc2nnc3c(n2)-c2cccc4cccc-3c24)cc1,IC50,[27],30000 nM
same,IC50,[28],30000 nM
same,IC50,[29],30000 nM
CCOC(=O)c1nnc2c(C#N)c(C)c(-c3ccccc3)n2c1N,IC50,[8],2770 nM
Nn1c(S)nnc(/C=C/c2cccs2)c1=O,IC50,[24],8790 nM
same,IC50,[25],8790 nM
same,IC50,[26],8790 nM
